The results in this text go back to US9080186B2, “Compositions comprising cationic amphiphiles and colipids for delivering therapeutic molecules” (Agave Pharma, Incorporated, priority 2009, dated 2015).

The data set is described as follows: siRNA remaining in water (supernatant OD260) after precipitation with cationic lipid. In kind it is physicochemical. More on the design: unit not given here. Here is the method: A nucleic acid/cationic lipid salt was prepared by the following method. Two mg of the cationic lipid was dissolved in 0.1 mL of chloroform in a clean, dry borosilicate clear glass vial and the chloroform was evaporated off by blowing nitrogen gas into the vial and any remaining trace amount of chloroform was removed by drying in vacuo in a vacuum chamber. The vial was removed from the vacuum chamber and 0.1 mL of ethanol was added. The vial was sealed with TEFLON®-lined cap and tightly wrapped with a sealing tape. The vial was vortexed or/and sonicated to dissolve the cationic lipid.
The solution of the cationic lipid in ethanol was added to an aqueous solution containing 1 mg siRNA. The addition of the cationic lipid to the siRNA solution caused immediate aggregation forming a water-insoluble cationic lipid/nucleic acid salt comprised of the cationic lipid and siRNA.
The water-insoluble cationic lipid/nucleic acid salt in a tube was then centrifuged in an Eppendorf microcentrifuge at maximum speed for 15 minutes to form a pellet. The supernatant after each centrifugation were collected and the amount siRNA in the supernatant was measured with OD260.
Table 2 is the summary of measurement of the ratio of siRNA/lipid which rendering siRNA insoluble in water.

Each structure is given as a SMILES string.

For `CC(C)CCC[C@@H](C)[C@H]1CC[C@H]2[C@@H]3CC=C4C[C@@H](OC(=O)NCCN(C)C)CC[C@]4(C)[C@H]3CC[C@]12C.Cl` [DC-Chol, cholesteryl 3β-N-(dimethylaminoethyl)carbamate hydrochloride], the “siRNA remaining in water” value is, setting by setting: (siRNA/lipids ratio 0.5) 72; (siRNA/lipids ratio 0.75) 63; (siRNA/lipids ratio 1) 57; (siRNA/lipids ratio 1.5) 35; (siRNA/lipids ratio 2) 13.

Turning to `CCCCCCCC/C=C\CCCCCCCCOCC(C[N+](C)(C)C)OCCCCCCCC/C=C\CCCCCCCC.[Cl-]` (stereo not drawn) [DOTMA, N-[1-(2,3-dioleyloxy)propyl]-N,N,N-trimethylammonium chloride], the “siRNA remaining in water” value worked out at 61 (siRNA/lipids ratio 0.5); 57 (siRNA/lipids ratio 0.75); 46 (siRNA/lipids ratio 1); 29 (siRNA/lipids ratio 1.5); 6 (siRNA/lipids ratio 2).

Turning to `CCCCCCCC/C=C\CCCCCCCC(=O)OCC(C[N+](C)(C)C)OC(=O)CCCCCCC/C=C\CCCCCCCC.[Cl-]` (stereo not drawn) [DOTAP, N-(l-(2,3-dioleoyloxy)propyl)-N,N,N-trimethylammonium chloride], the “siRNA remaining in water” value reads like this: (siRNA/lipids ratio 0.5) 63; (siRNA/lipids ratio 0.75) 55; (siRNA/lipids ratio 1) 45; (siRNA/lipids ratio 1.5) 28; (siRNA/lipids ratio 2) 10.
